Results: ChEMBL document CHEMBL5126608, “Development, Optimization, and In Vivo Validation of New Imidazopyridine Chemotypes as Dual TLR7/TLR9 Antagonists through Activity-Directed Sequential Incorporation of Relevant Structural Subunits” (J Med Chem, 2022)
In brackets after ≈: the same amount, converted by molar mass.

Key:
Toll-like receptor 9 = target: T1, Toll-like receptor 9 (Homo sapiens, UniProt Q9NR96); assay: Antagonist activity at human TLR9 expressed in HEK-blue hTLR9 cells assessed as inhibition of CpGB-induced NFkappaB activation preincubated with compound for 1 hrs followed by CpGB addition and measured next day by SEAP-based spectrophotometry assay; type: cell-based
T1 sequence (Q9NR96 whole entry): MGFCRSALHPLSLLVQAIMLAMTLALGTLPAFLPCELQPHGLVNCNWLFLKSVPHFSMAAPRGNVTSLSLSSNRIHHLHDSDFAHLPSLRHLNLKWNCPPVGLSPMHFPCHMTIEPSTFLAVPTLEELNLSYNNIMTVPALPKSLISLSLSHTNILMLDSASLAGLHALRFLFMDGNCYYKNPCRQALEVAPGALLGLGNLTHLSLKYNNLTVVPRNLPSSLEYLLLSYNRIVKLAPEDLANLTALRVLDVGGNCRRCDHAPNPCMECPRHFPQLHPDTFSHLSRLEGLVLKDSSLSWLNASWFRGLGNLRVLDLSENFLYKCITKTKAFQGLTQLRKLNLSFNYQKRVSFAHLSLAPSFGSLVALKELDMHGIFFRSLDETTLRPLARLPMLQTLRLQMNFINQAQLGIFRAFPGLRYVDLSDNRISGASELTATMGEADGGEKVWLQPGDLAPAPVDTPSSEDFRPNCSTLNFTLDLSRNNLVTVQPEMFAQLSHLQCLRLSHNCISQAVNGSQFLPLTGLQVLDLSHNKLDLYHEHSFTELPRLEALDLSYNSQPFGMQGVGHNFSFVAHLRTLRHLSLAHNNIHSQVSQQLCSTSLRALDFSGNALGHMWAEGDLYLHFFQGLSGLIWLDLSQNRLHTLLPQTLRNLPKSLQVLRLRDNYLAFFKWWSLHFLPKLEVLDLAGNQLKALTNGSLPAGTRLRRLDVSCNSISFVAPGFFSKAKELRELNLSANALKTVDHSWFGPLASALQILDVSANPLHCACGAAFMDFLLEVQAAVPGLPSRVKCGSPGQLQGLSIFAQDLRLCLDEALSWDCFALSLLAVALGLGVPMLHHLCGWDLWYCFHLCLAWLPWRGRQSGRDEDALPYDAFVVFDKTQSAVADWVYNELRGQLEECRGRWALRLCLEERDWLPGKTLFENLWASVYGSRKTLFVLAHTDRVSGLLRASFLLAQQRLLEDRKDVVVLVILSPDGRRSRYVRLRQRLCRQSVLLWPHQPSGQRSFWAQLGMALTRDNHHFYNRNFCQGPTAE

Toll-like receptor 7 = target: T2, Toll-like receptor 7 (Homo sapiens, UniProt Q9NYK1)
T2 sequence (Q9NYK1 whole entry): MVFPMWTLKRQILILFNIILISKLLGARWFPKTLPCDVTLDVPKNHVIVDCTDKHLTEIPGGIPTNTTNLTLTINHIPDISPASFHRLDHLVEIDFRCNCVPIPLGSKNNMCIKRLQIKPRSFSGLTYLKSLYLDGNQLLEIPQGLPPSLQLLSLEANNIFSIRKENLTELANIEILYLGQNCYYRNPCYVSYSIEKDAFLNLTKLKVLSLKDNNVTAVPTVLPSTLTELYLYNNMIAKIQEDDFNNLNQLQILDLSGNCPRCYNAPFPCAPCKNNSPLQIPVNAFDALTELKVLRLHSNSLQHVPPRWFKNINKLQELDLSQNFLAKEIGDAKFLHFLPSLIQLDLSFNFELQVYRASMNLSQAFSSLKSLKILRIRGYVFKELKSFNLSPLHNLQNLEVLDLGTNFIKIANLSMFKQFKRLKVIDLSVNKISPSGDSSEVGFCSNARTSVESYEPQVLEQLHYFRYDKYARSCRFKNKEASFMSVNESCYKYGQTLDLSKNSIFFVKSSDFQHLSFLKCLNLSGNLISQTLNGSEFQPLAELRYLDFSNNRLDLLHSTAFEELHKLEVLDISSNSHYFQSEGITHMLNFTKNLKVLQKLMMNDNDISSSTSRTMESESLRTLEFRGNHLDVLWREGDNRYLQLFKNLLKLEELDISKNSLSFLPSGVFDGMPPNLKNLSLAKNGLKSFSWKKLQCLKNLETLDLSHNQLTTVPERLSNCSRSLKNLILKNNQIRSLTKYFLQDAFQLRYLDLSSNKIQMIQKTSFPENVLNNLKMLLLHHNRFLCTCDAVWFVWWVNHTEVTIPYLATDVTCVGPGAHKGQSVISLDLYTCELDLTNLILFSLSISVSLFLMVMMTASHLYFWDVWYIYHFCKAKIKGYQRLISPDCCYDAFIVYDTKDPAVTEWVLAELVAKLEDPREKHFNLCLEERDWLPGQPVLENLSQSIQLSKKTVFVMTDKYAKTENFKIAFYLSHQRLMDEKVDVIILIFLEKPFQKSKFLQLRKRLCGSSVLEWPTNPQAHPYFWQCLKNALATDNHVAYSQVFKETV

in vitro [1] = details: mouse, microsomes
Description: Metabolic stability in mouse liver microsomes assessed as half life at 5 uM measured for 60 mins by LC-MS/MS analysis

[2] = Stability in human plasma assessed as parent compound remaining at 1 uM measured after 2 hrs by LC-MS/MS analysis
[3] = Stability in mouse plasma assessed as parent compound remaining at 1 uM measured after 2 hrs by LC-MS/MS analysis
physchem [4] = details: octanol/water
Description: 1-Octanol/phosphate buffer partition coefficient, logD of the compound measured after 4.5 hrs by HPLC-UV analysis

physchem [5] = details: buffer, pH 7.4
in vitro [6] = details: human, microsomes
Description: Metabolic stability in human liver microsomes assessed as half life at 5 uM measured for 60 mins by LC-MS/MS analysis

[7] = Apparent permeability across apical to basolateral side in human Caco-2 cells measured after 120 mins by LC-MS/MS analysis
[8] = Efflux ratio of apparent permeability across basolateral to apical side to apical to basolateral side in human Caco-2 cells measured after 120 mins by LC-MS/MS analysis
[9] = Apparent permeability across basolateral to apical side in human Caco-2 cells measured after 120 mins by LC-MS/MS analysis

Compound | IC50 (Toll-like receptor 9) | IC50 (Toll-like receptor 7) | also measured
COc1ccc(-c2cn3ccccc3n2)c(OC)c1 | 10400 nM |  | 
COc1ccc(-c2nc3cc(N4CCN(C5CCCC5)CC4)ccn3c2CN2CCOCC2)c(OC)c1 | 142 nM | 2120 nM | 
COc1ccc(-c2cn3ccc(N(C)C)cc3n2)cc1 | 1480 nM |  | 
COc1ccc(-c2nc3ccccn3c2N)c(OC)c1 |  | > 30000 nM | 
COc1ccc(-c2cn3ccc(N4CCN(C(C)C)CC4)cc3n2)cc1 | 44 nM | 1230 nM | half-life at 1 h, 5 µM (in vitro [1]): 29.4 min; remaining at 2 h, 1 µM [2]: 60.4%; remaining at 2 h, 1 µM [3]: 92.8%; logD at 4.5 h (physchem [4]): 1.64; solubility kinetic at 24 h, 500 µM (physchem [5]): 46.1 µg/mL (≈ 131 µM); half-life at 1 h, 5 µM (in vitro [6]): 66 min
COc1ccc(-c2cn3ccc(N4CCN(C5CCCC5)CC4)cc3n2)c(OCc2ccccc2)c1 | 153 nM | 5560 nM | 
COc1ccc(-c2cn3ccc(N4CCN(C5CCCC5)CC4)cc3n2)c(O)c1 | 790 nM | 20800 nM | 
COc1ccc(-c2cn3ccc(NCCCn4ccnc4)cc3n2)c(OC)c1 | 38 nM | 819 nM | 
COc1ccc(-c2nc3cc(N4CCN(C(C)C)CC4)ccn3c2CN2CCCC2)c(OC)c1 | 15 nM |  | 
COc1ccc(-c2cn3ccc(NCCCN4CCOCC4)cc3n2)cc1 | 67 nM | 1060 nM | 
COc1ccc(-c2cn3ccc(N4CCN(C5CCCC5)CC4)cc3n2)c(OCCCN2CCCC2)c1 | 17 nM |  | 
COc1ccc(-c2cn3ccc(N4CCN(C(=O)OC(C)(C)C)CC4)cc3n2)c(OCCCN2CCOCC2)c1 | 314 nM | 2950 nM | 
COc1ccc(-c2nc3cc(N4CCN(C5CCCC5)CC4)ccn3c2NCc2ccccc2)c(OC)c1 | 526 nM | 4810 nM | 
CN(C)c1ccn2cc(-c3ccccc3)nc2c1 | 2190 nM |  | 
COc1ccc(-c2cn3ccc(N4CCN(C(=O)C5CCCC5)CC4)cc3n2)c(O)c1 | 2120 nM |  | 
COc1ccc(-c2cn3ccc(N4CCN(C5CCCC5)CC4)cc3n2)c(OC)c1 | 49 nM | 2340 nM | half-life at 1 h, 5 µM (in vitro [1]): 31.8 min; remaining at 2 h, 1 µM [2]: 64.9%; remaining at 2 h, 1 µM [3]: 93.4%; logD at 4.5 h (physchem [4]): 2.13; solubility kinetic at 24 h, 500 µM (physchem [5]): 10.2 µg/mL (≈ 25.1 µM); half-life at 1 h, 5 µM (in vitro [6]): 37.6 min
COc1ccc(-c2cn3ccc(N4CCNCC4)cc3n2)c(OCc2ccccc2)c1 | 55 nM | 1130 nM | 
COc1ccc(-c2cn3ccc(N(C)C)cc3n2)c(OC)c1 | 766 nM | 3780 nM | 
COc1ccc(-c2cn3ccc(N4CCN(C(=O)C5CCCC5)CC4)cc3n2)c(OCc2ccccc2)c1 | 5130 nM |  | 
COc1ccc(-c2cn3ccc(N)cc3n2)cc1 | 2920 nM |  | 
COc1ccc(-c2cn3ccc(NCCCN4CCOCC4)cc3n2)c(OC)c1 | 69 nM |  | 

Compound | IC50 (Toll-like receptor 9) | IC50 (Toll-like receptor 7) | also measured
COc1ccc(-c2nc3cc(N4CCN(C(=O)C5CCCC5)CC4)ccn3c2CN2CCCC2)c(OC)c1 | 1120 nM | 2550 nM | 
COc1ccc(-c2nc3cc(N4CCN(C5CCCC5)CC4)ccn3c2CN2CCCC2)c(O)c1 | 245 nM | 24900 nM | 
COc1ccc(-c2cn3ccc(N4CCN(C(=O)C5CCCC5)CC4)cc3n2)c(OC)c1 | 2910 nM | 8700 nM | 
COc1ccc(-c2cn3ccc(N)cc3n2)c(OC)c1 | 1570 nM |  | 
COc1ccc(-c2cn3ccc(N4CCN(C(=O)c5ccccc5)CC4)cc3n2)c(OCc2ccccc2)c1 | 1060 nM | 24900 nM | 
COc1ccc(-c2cn3ccc(N4CCN(C(=O)c5ccc(F)cc5)CC4)cc3n2)c(OCc2ccccc2)c1 | 2190 nM | 11000 nM | 
COc1ccc(-c2cn3ccc(N4CCNCC4)cc3n2)c(OCCCN2CCCC2)c1 | 94 nM |  | 
COc1ccc(-c2cn3ccc(N4CCN(C(=O)OC(C)(C)C)CC4)cc3n2)c(OCCCN2CCCC2)c1 | 157 nM |  | 
COc1ccc(-c2cn3ccc(N4CCNCC4)cc3n2)c(OC)c1 | 46 nM |  | 
COc1ccc(-c2cn3ccc(NCCN4CCOCC4)cc3n2)c(OC)c1 | 49 nM | 3390 nM | 
COc1ccc(-c2nc3cc(N4CCN(C(C)C)CC4)ccn3c2CN2CCOCC2)c(OC)c1 | 40 nM | 2490 nM | 
COc1ccc(-c2cn3ccc(N4CCNCC4)cc3n2)c(OCCCN2CCOCC2)c1 | 35 nM | 1350 nM | 
COc1ccc(-c2nc3cc(N4CCN(C5CCCC5)CC4)ccn3c2CN2CCCC2)c(OC)c1 | 39 nM |  | 
COc1ccc(-c2cn3ccc(N4CCNCC4)cc3n2)cc1 | 803 nM | 559 nM | 
COc1ccc(-c2cn3ccc(N4CCN(C5CCCC5)CC4)cc3n2)cc1 | 71 nM | 3330 nM | 
COc1ccc(-c2nc3cc(N4CCN(C5CCCC5)CC4)ccn3c2CN2CCCC2)c(OCc2ccccc2)c1 | 240 nM |  | 
COc1ccc(-c2nc3cc(N4CCN(C5CCCC5)CC4)ccn3c2NC2CCCCC2)c(OC)c1 | 2110 nM | 6700 nM | 
CCCSc1ccc2nc(NC(=O)OC)[nH]c2c1 [ALBENDAZOLE] |  |  | solubility kinetic at 24 h, 500 µM (physchem [5]): 2.2 µg/mL (≈ 8.29 µM)
CC(C)[N+](C)(CCOC(=O)C1c2ccccc2Oc2ccccc21)C(C)C [PROPANTHELINE] |  |  | remaining at 2 h, 1 µM [2]: 0%; remaining at 2 h, 1 µM [3]: 0%
CC(C)NCC(O)COc1cccc2ccccc12 (stereo not drawn) [PROPRANOLOL] |  |  | Papp A→B at 2 h [7]: 14.4 ×10⁻⁶ cm/s; efflux ratio at 2 h [8]: 1.2; Papp B→A at 2 h [9]: 17.3 ×10⁻⁶ cm/s
